The text below walks through data of patent US9133204B2, “5-membered heterocyclic amides and related compounds” (H. Lundbeck A/S, priority 2007, dated 2015).

Structures are written as SMILES. A value given as a limit tells only on which side of the number the result lay.

In this assay the target is T1, P2X7 receptor (Homo sapiens, UniProt Q99572).
T1 construct: host or cells: SH-SY5Y
T1 sequence (Q99572 1-595): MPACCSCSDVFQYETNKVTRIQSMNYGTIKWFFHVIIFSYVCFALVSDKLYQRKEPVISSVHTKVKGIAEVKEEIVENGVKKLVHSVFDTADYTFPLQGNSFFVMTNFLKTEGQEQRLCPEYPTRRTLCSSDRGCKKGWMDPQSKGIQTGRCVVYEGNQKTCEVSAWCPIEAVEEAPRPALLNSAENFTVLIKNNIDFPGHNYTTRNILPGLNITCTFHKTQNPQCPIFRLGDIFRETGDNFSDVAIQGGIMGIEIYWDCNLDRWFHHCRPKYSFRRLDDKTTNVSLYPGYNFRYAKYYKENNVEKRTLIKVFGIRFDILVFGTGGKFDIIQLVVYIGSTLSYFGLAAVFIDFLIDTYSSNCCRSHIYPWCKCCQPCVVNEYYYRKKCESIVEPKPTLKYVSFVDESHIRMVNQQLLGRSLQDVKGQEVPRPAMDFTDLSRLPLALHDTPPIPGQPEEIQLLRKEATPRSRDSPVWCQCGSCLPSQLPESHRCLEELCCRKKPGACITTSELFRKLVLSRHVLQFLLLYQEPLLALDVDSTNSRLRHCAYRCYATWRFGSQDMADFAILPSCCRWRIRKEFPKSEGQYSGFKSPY
Nature of the assay: High throughput P2X7 calcium mobilization assay (Example 4A). The assay is classed as cell-based. The note with it: SH-SY5Y cells; 50% decrease in fluorescence response of cells exposed to 80 μM BzATP; Table I. Put shortly:
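Calcium mobilization read by FLIPR as peak fluorescence over 2 min after adding BzATP to a final 80 μM (about EC50). Beforehand, Fluo-4 AM-loaded SH-SY5Y cells sat 1 h at room temperature with compound at 1–2500 nM in pH 7.4 sucrose/HEPES buffer; signal minus no-agonist wells.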
In general terms: A change in cytosolic calcium serves as a functional read-out for many receptors and channels.
`O=C(NCC1(c2cccnc2)CCCCC1)c1sc(N2CCC(O)CC2)nc1C(F)(F)F` [Compound 295, 2-(4-hydroxypiperidin-1-yl)-N-[(1-pyridin-3-ylcyclohexyl)methyl]-4-(trifluoromethyl)-1,3-thiazole-5-carboxamide]: the 50% inhibitory concentration (IC50) (commonly the midpoint of a concentration-inhibition curve) was at most 2000 nM.

Consider `O=C(NCC1(N2CCCCC2)CCCCC1)c1sc(-c2ncccn2)nc1C(F)(F)F` [Compound 296, N-[(1-piperidin-1-ylcyclohexyl)methyl]-2-pyrimidin-2-yl-4-(trifluoromethyl)-1,3-thiazole-5-carboxamide], for which the concentration for half-maximal inhibition (IC50) was at most 2000 nM.

Regarding `CC(C)n1cc(C2(CNC(=O)c3sc(-c4ncccn4)nc3C(F)(F)F)CCCCC2)cn1` [Compound 297, N-{[1-(1-isopropyl-1H-pyrazol-4-yl)cyclohexyl]methyl}-2-pyrimidin-2-yl-4-(trifluoromethyl)-1,3-thiazole-5-carboxamide], the half-inhibitory concentration (IC50) was at most 2000 nM.

As for `CCc1nc(-c2ncccn2)sc1C(=O)NCC1(c2ccc(Cl)nc2)CCCCC1` [Compound 298, N-{[1-(6-chloropyridin-3-yl)cyclohexyl]methyl}-4-ethyl-2-pyrimidin-2-yl-1,3-thiazole-5-carboxamide], the half-inhibitory concentration (IC50) is at most 2000 nM.

In the case of `CCc1nc(-c2ncccn2)sc1C(=O)NCC(CC(C)C)c1ccc(Cl)nc1` (stereo not drawn) [Compound 299, N-[2-(6-chloropyridin-3-yl)-4-methylpentyl]-4-ethyl-2-pyrimidin-2-yl-1,3-thiazole-5-carboxamide], the concentration for half-maximal inhibition (IC50) was at most 2000 nM.

As for `O=C(NCC1(c2cccnc2)CCCCC1)c1sc(N2CCNCC2)nc1C(F)(F)F` [Compound 300, 2-piperazin-1-yl-N-[(1-pyridin-3-ylcyclohexyl)methyl]-4-(trifluoromethyl)-1,3-thiazole-5-carboxamide], the IC50 was at most 2000 nM.

As to `CC(C)(C)OC(=O)NC1CCN(c2nc(C(F)(F)F)c(C(=O)NCC3(c4cccnc4)CCCCC3)s2)CC1` [Compound 301, tert-butyl {1-[5-{[(1-pyridin-3-ylcyclohexyl)methyl]carbamoyl}-4-(trifluoromethyl)-1,3-thiazol-2-yl]piperidin-4-yl}carbamate], the IC50 was at most 2000 nM.

Take `O=C(NCC1(c2cccnc2)CCCCC1)c1sc(N2CCC(N3CCCC3)CC2)nc1C(F)(F)F` [Compound 302, N-[(1-pyridin-3-ylcyclohexyl)methyl]-2-(4-pyrrolidin-1-ylpiperidin-1-yl)-4-(trifluoromethyl)-1,3-thiazole-5-carboxamide]: the IC50 is at most 2000 nM.

As for `NC1CCN(c2nc(C(F)(F)F)c(C(=O)NCC3(c4cccnc4)CCCCC3)s2)CC1` [Compound 303, 2-(4-aminopiperidin-1-yl)-N-[(1-pyridin-3-ylcyclohexyl)methyl]-4-(trifluoromethyl)-1,3-thiazole-5-carboxamide], the IC50 is at most 2000 nM.

For `CC(C)CC(CNC(=O)c1sc(-c2ncccn2)nc1C(F)(F)F)c1ccc(C(F)(F)F)nc1` (stereo not drawn) [Compound 304, N-{4-methyl-2-[6-(trifluoromethyl)pyridin-3-yl]pentyl}-2-pyrimidin-2-yl-4-(trifluoromethyl)-1,3-thiazole-5-carboxamide], the IC50 was at most 2000 nM.

On to `CCc1nc(-c2ncccn2)sc1C(=O)NCC(CC(C)C)c1ccc(C(F)(F)F)nc1` (stereo not drawn) [Compound 305, 4-ethyl-N-{4-methyl-2-[6-(trifluoromethyl)pyridin-3-yl]pentyl}-2-pyrimidin-2-yl-1,3-thiazole-5-carboxamide], for which the half-inhibitory concentration (IC50) was at most 2000 nM.

In the case of `Cc1nc(-c2ncccn2)sc1C(=O)NCC(CC(C)C)c1ccc(C(F)(F)F)nc1` (stereo not drawn) [Compound 306, 4-methyl-N-{4-methyl-2-[6-(trifluoromethyl)pyridin-3-yl]pentyl}-2-pyrimidin-2-yl-1,3-thiazole-5-carboxamide], the concentration for half-maximal inhibition (IC50) was at most 2000 nM.

On to `O=C(NCC1(c2cccnc2)CCCCC1)c1sc(-n2ncccc2=O)nc1C(F)(F)F` [Compound 307, 2-(6-oxopyridazin-1(6H)-yl)-N-[(1-pyridin-3-ylcyclohexyl)methyl]-4-(trifluoromethyl)-1,3-thiazole-5-carboxamide], for which the half-inhibitory concentration (IC50) is at most 2000 nM.

Consider `O=C(NCC1(c2cccnc2)CCCCC1)c1sc(-n2ccnn2)nc1C(F)(F)F` [Compound 308, N-[(1-pyridin-3-ylcyclohexyl)methyl]-2-(1H-1,2,3-triazol-1-yl)-4-(trifluoromethyl)-1,3-thiazole-5-carboxamide], for which the half-maximal inhibitory concentration (IC50) was at most 2000 nM.

Take `O=C(NCC1(c2cccnc2)CCCCC1)c1sc(-n2nccn2)nc1C(F)(F)F` [Compound 309, N-[(1-pyridin-3-ylcyclohexyl)methyl]-2-(2H-1,2,3-triazol-2-yl)-4-(trifluoromethyl)-1,3-thiazole-5-carboxamide]: the IC50 was at most 2000 nM.

In the case of `O=C(NCC1(c2cccnc2)CCCCC1)c1sc(-n2cncn2)nc1C(F)(F)F` [Compound 310, N-[(1-pyridin-3-ylcyclohexyl)methyl]-2-(1H-1,2,4-triazol-1-yl)-4-(trifluoromethyl)-1,3-thiazole-5-carboxamide], the IC50 is at most 2000 nM.

On to `Cc1nc(-c2cccnc2)sc1C(=O)NCC1(c2cccnc2)CCCCC1` [Compound 311, 4-methyl-2-pyridin-3-yl-N-[(1-pyridin-3-ylcyclohexyl)methyl]-1,3-thiazole-5-carboxamide], for which the IC50 is at most 2000 nM.

Regarding `CN1CCN(C2(CNC(=O)c3sc(-c4ncccn4)nc3C(F)(F)F)CCCCC2)CC1` [Compound 312, N-{[1-(4-methylpiperazin-1-yl)cyclohexyl]methyl}-2-pyrimidin-2-yl-4-(trifluoromethyl)-1,3-thiazole-5-carboxamide], the half-maximal inhibitory concentration (IC50) was at most 2000 nM.

Regarding `O=C(NCC1(N2CCNCC2)CCCCC1)c1sc(-c2ncccn2)nc1C(F)(F)F` [Compound 313, N-[(1-piperazin-1-ylcyclohexyl)methyl]-2-pyrimidin-2-yl-4-(trifluoromethyl)-1,3-thiazole-5-carboxamide], the half-inhibitory concentration (IC50) is at most 2000 nM.

As to `O=C(NCC(c1ccc(Cl)cc1)N1CCOCC1)c1sc(-c2ncccn2)nc1C(F)(F)F` (stereo not drawn) [Compound 314, N-[2-(4-chlorophenyl)-2-morpholin-4-ylethyl]-2-pyrimidin-2-yl-4-(trifluoromethyl)-1,3-thiazole-5-carboxamide], the IC50 is at most 2000 nM.

`CCc1nc(-c2ncccn2)sc1C(=O)NCC(c1ccc(C(F)(F)F)cc1)N(C)C(C)C` (stereo not drawn) [Compound 315, 4-ethyl-N-{2-[isopropyl(methyl)amino]-2-[4-(trifluoromethyl)phenyl]ethyl}-2-pyrimidin-2-yl-1,3-thiazole-5-carboxamide]: the IC50 was at most 2000 nM.

Turning to `O=C(NCC1(c2cccnc2)CCCCC1)c1sc(-c2cnccn2)nc1C(F)(F)F` [Compound 316, 2-pyrazin-2-yl-N-[(1-pyridin-3-ylcyclohexyl)methyl]-4-(trifluoromethyl)-1,3-thiazole-5-carboxamide], the IC50 is at most 2000 nM.

Turning to `O=C(NCC1(c2cccnc2)CCCCC1)c1sc(-c2nccs2)nc1C(F)(F)F` [Compound 317, N-[(1-pyridin-3-ylcyclohexyl)methyl]-4-(trifluoromethyl)-2,2′-bi-1,3-thiazole-5-carboxamide], the IC50 was at most 2000 nM.

For `O=C(NCC1(c2cccnc2)CCCCC1)c1sc(-c2ccc3[nH]ccc3c2)nc1C(F)(F)F` [Compound 318, 2-(1H-indol-5-yl)-N-[(1-pyridin-3-ylcyclohexyl)methyl]-4-(trifluoromethyl)-1,3-thiazole-5-carboxamide], the IC50 is at most 2000 nM.

Consider `O=C(NCC1(c2cccnc2)CCCCC1)c1sc(-c2cccc3cccnc23)nc1C(F)(F)F` [Compound 319, N-[(1-pyridin-3-ylcyclohexyl)methyl]-2-quinolin-8-yl-4-(trifluoromethyl)-1,3-thiazole-5-carboxamide], for which the half-inhibitory concentration (IC50) was at most 2000 nM.

On to `CC(C)CC(CNC(=O)c1sc(-c2ncccn2)nc1C(F)(F)F)c1cccnc1` (stereo not drawn) [Compound 320, N-(4-methyl-2-pyridin-3-ylpentyl)-2-pyrimidin-2-yl-4-(trifluoromethyl)-1,3-thiazole-5-carboxamide], for which the concentration for half-maximal inhibition (IC50) was at most 2000 nM.

Regarding `O=C(NCC1(c2cccnc2)CCCCC1)c1sc(-c2ccccn2)nc1C(F)(F)F` [Compound 321, 2-pyridin-2-yl-N-[(1-pyridin-3-ylcyclohexyl)methyl]-4-(trifluoromethyl)-1,3-thiazole-5-carboxamide], the IC50 was at most 2000 nM.
